# Measured values as given in publication PMC7915026, “Sulfaguanidine Hybrid with Some New Pyridine-2-One Derivatives: Design, Synthesis, and Antimicrobial Activity against Multidrug-Resistant Bacteria as Dual DNA Gyrase and DHFR Inhibitors” (Antibiotics, 2021).
# Where two headings read alike, the source gives them in different places.
# Legend:
# [1] = system: C. albicans (ATCC 10231); test: MIC and MFC determination; type: cell-based; conditions: for MFC / MIC: Candida albicans; for MFC: ATCC10231, read-out: MFC; for MIC: ATCC10231, read-out: MIC
# [2] = system: F. oxysporum (RCMB 008002); test: MIC and MFC determination; type: cell-based; conditions: for MFC / MIC: Fusarium oxysporum; for MFC: RCMB008002, read-out: MFC; for MIC: RCMB008002, read-out: MIC
# [3] = system: neutrophils; test: In vitro intracellular killing, nitro blue tetrazolium (NBT) reduction assay; type: cell-based
# Protocol: One of the broad methods used for determining immune disorders for patients in hospitals is the NBT test to measure their immune responses. The reduction in NBT dye provides information about the phagocytic and intracellular killing functions of neutrophils, which are important for microbiocidal activity. The most promising derivatives (2a, 2b, 2d, 3a, 8, and 11) were evaluated against in vitro intracellular killing activities using a nitro blue tetrazolium (NBT) reduction assay and the obtained results expressed in percentage (%): increasing the percentage led to an improvement in the killing ability of the neutrophils used as innate immunity.
# (§1) In vitro intracellular killing activities for the most promising six derivatives 2a, 2b, 2d, 3a, 8, and 11 were performed according to reported methods.
# [4] = system: E. coli ATCC 25922; test: MIC and MBC determination; type: cell-based; conditions: Escherichia coli, ATCC25922, E. coli; for MBC: read-out: MBC; for MIC: read-out: MIC
# [5] = system: B. subtilis ATCC 6633; test: MIC and MBC determination; type: cell-based; conditions: Bacillus subtilis, ATCC6633, B. subtilis; for MBC: read-out: MBC; for MIC: read-out: MIC
# [6] = system: S. aureus ATCC 43300; test: Inhibition zone against multidrug-resistant bacteria; further: test concentration or dose not given here; type: cell-based; conditions: MDRB S. aureus ATCC 43300
# Procedure, shortened: (§2)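 Readout: clear-zone diameter, mm. Agar plate diffusion format; norfloxacin used as comparator control.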
# [7] = system: S. aureus ATCC 33591; test: as above; type: cell-based; conditions: MDRB S. aureus ATCC 33591
# Procedure, shortened: as §2
# [8] = system: E. coli ATCC BAA-196; test: as above; type: cell-based; conditions: MDRB E. coli ATCC BAA-196
# Procedure, shortened: as §2
# [9] = system: P. aeruginosa ATCC BAA-2111; test: as above; type: cell-based; conditions: MDRB P. aeruginosa ATCC BAA-2111
# Procedure, shortened: as §2
# [10] = target: E. coli DHFR (dihydrofolate reductase) (Escherichia coli, UniProt P0ABQ4); test: In vitro DHFR enzymatic assay; type: biochemical
# [11] = target: S. aureus DNA gyrase (Staphylococcus aureus, UniProt P0A0K8+P20831); test: In vitro DNA gyrase supercoiling enzymatic assay; type: biochemical
# [12] = system: F. oxysporum (RCMB 008002); test: Inhibition zone, paper disk/agar diffusion; type: cell-based; conditions: Na = no activity; further: test concentration or dose not given here
# Procedure, shortened: as §2
# [13] = system: S. aureus ATCC 29213; test: Inhibition zone, paper disk/agar diffusion; further: test concentration or dose not given here; type: cell-based; conditions: S. aureus; Na = no activity
# Procedure, shortened: as §2
# [14] = system: S. typhi ATCC 6539; test: Inhibition zone, paper disk/agar diffusion; type: cell-based; conditions: S. typhi; Na = no activity
# Procedure, shortened: as §2
# [15] = system: E. faecalis ATCC 29212; test: Inhibition zone, paper disk/agar diffusion; further: test concentration or dose not given here; type: cell-based; conditions: E. faecalis; Na = no activity
# Procedure, shortened: as §2
# [16] = system: C. albicans (ATCC 10231); test: Inhibition zone, paper disk/agar diffusion; type: cell-based; conditions: Na = no activity
# Procedure, shortened: as §2
# [17] = system: E. coli ATCC 25922; test: Inhibition zone, paper disk/agar diffusion; type: cell-based; conditions: E. coli; Na = no activity
# Procedure, shortened: as §2
# [18] = system: S. aureus ATCC 29213; test: MIC and MBC determination; type: cell-based; conditions: S. aureus
# [19] = system: Salmonella typhi (S. typhi ATCC 6539); test: microbe, parasite or virus in culture; type: cell-based; conditions: Salmonella enterica, Salmonella typhi; for MBC: read-out: MBC; for MIC: read-out: MIC
# [20] = system: S. aureus ATCC 43300; test: MIC and MBC against multidrug-resistant strains; type: cell-based; conditions: Staphylococcus aureus, ATCC43300
# From the text: (§3) Norfloxacin was used as a positive control for the multidrug resistance study.
# (§4) The experiment was repeating for three-times.
# [21] = system: S. aureus ATCC 33591; test: MIC and MBC against multidrug-resistant strains; type: cell-based; conditions: Staphylococcus aureus, ATCC33591
# From the text: as §3, §4
# [22] = system: E. coli ATCC BAA-196; test: MIC and MBC against multidrug-resistant strains; type: cell-based; conditions: Escherichia coli, ATCCBAA196
# From the text: as §3, §4
# [23] = system: P. aeruginosa ATCC BAA-2111; test: MIC and MBC against multidrug-resistant strains; type: cell-based; conditions: Pseudomonas aeruginosa, ATCCBAA2111
# From the text: as §3, §4
# [24] = system: P. aeruginosa ATCC 27853; test: MIC and MBC determination; type: cell-based; conditions: Pseudomonas aeruginosa, ATCC27853, P. aeruginosa; for MBC: read-out: MBC; for MIC: read-out: MIC
# [25] = system: E. faecalis ATCC 29212; test: MIC and MBC determination; type: cell-based; conditions: Enterococcus faecalis, ATCC29212, E. faecalis; for MBC: read-out: MBC; for MIC: read-out: MIC
# [26] = system: CD4+ and CD8+ T lymphocytes; test: In vivo T lymphocyte subsets from peripheral blood, flow cytometry; conditions: mice
# From the text: Activation of immune cells as CD4^+ and CD8^+ T cells is one possible mechanism of a drug’s immune stimulus activity. An increase in these cells is thought to be a good indicator of an active immune response to infections. So, our work extended to study the effect of the most promising derivatives (2d, 8, and 11) on T lymphocyte subsets (CD4^+ and CD8^+) from peripheral blood, and determined the relative level in model mice that analyzed by flow cytometry after the period of treating.
# as §1
# [27] = system: P. aeruginosa ATCC 27853; test: Inhibition zone, paper disk/agar diffusion; type: cell-based; conditions: P. aeruginosa; Na = no activity
# Procedure, shortened: as §2
# [28] = system: B. subtilis ATCC 6633; test: Inhibition zone, paper disk/agar diffusion; further: test concentration or dose not given here; type: cell-based; conditions: B. subtilis; Na = no activity
# Procedure, shortened: as §2
# [29] = system: spleen and thymus; test: In vivo immunomodulation: immune organ weight and indexes; design: Spleen index: unit not given here; conditions: mice
# From the text: Both the spleen and thymus have important antibacterial and fungal immune organ responses, and any change in weight, and indexes can reflect the level of immune regulation. Additionally, the relative spleen and thymus indexes are important indices for nonspecific immunity and potential immunomodulatory compounds that increase the spleen and thymus weight. This increase is due to immune cells’ stimulation in the spleen and thymus. […]
# [30] = Staphylococcus aureus, ATCC29213, read-out: MBC
# [31] = Staphylococcus aureus, ATCC29213, read-out: MIC
# Wherever Mean Diameter of Inhibition Zone is given: test concentration or dose not given here.
# S. aureus DNA gyrase, sequence (P20831 whole entry, the tested form may be a part): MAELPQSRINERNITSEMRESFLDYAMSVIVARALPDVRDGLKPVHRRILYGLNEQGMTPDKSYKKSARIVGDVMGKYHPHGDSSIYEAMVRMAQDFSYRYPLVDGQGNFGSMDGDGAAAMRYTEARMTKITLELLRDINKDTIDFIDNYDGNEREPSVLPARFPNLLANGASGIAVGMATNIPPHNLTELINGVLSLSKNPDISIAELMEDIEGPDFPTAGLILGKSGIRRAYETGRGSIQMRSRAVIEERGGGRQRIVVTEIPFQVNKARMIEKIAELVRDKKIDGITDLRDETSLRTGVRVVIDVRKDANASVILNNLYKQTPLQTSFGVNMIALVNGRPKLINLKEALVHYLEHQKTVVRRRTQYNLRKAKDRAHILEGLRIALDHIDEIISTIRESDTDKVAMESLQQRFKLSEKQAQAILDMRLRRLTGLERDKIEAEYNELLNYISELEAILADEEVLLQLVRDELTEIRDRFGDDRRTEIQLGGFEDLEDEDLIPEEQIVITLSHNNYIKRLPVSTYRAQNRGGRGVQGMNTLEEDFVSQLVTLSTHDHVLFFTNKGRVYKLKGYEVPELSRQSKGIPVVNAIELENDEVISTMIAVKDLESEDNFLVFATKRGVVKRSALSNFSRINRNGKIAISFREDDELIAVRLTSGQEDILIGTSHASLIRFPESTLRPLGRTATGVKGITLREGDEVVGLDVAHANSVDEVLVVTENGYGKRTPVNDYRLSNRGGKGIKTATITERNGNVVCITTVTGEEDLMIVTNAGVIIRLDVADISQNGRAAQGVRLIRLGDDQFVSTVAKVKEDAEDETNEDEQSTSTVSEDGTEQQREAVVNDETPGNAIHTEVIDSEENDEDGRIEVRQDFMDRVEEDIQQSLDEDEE
# S. aureus DNA gyrase, sequence (P0A0K8 whole entry, the tested form may be a part): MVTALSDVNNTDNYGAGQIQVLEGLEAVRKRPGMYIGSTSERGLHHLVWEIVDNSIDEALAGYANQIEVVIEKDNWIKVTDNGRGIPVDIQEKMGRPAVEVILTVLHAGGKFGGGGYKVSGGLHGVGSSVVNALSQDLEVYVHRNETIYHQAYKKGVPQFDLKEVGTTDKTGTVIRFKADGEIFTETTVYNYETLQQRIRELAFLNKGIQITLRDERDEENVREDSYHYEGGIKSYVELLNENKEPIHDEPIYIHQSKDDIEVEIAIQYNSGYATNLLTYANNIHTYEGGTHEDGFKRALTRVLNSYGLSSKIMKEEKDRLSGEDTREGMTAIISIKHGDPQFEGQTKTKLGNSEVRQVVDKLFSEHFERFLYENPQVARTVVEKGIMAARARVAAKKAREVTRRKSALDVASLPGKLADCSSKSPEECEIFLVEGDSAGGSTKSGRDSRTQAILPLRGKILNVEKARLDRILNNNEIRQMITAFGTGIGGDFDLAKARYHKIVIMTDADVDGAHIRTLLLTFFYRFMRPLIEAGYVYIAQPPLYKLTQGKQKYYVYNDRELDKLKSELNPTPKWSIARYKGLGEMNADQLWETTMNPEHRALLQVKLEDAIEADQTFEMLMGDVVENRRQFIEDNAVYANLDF
# E. coli DHFR (dihydrofolate reductase), sequence (P0ABQ4 whole entry): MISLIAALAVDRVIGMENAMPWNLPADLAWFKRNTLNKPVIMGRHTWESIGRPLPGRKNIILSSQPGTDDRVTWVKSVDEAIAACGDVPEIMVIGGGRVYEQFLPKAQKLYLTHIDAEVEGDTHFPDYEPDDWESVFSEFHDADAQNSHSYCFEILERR
smiles,measurement,setting,value
"N#CC(=Cc1ccc(Cl)cc1)C(=O)Nc1ccc(S(=O)(=O)NC(=N)N)cc1 [Compound 2a, N-(4-(N-Carbamimidoylsulfamoyl)phenyl)-3-(4-chlorophenyl)-2-cyanoacrylamide]",MFC/MIC,[1],<2
same,MFC,[1],103.1 ± 1.02 µM
same,MIC,[1],77.4 ± 0.85 µM
same,MFC/MIC,[2],<2
same,MFC,[2],217 ± 2.98 µM
same,MIC,[2],138 ± 1.69 µM
same,Intracellular Killing Activity,[3],82.8 ± 0.37%
same,MBC,[4],90.4 ± 0.98 µM
same,MIC,[4],45.8 ± 0.98 µM
same,MBC,[5],45.8 ± 1.65 µM
same,MIC,[5],22.9 ± 1.02 µM
same,Mean Diameter of Inhibition Zone,[6],23 ± 0.11 mm
same,Mean Diameter of Inhibition Zone,[7],25 ± 0.33 mm
same,Mean Diameter of Inhibition Zone,[8],23 ± 0.94 mm
same,Mean Diameter of Inhibition Zone,[9],24 ± 0.18 mm
same,IC50,[10],5.54 ± 0.33 µM
same,IC50,[11],23.9 ± 1.22 µM
same,Mean Diameter of the Inhibition Zone,[12],21 ± 0.16 mm
same,Mean Diameter of the Inhibition Zone,[13],25 ± 0.77 mm
same,Mean Diameter of the Inhibition Zone,[14],23 ± 0.65 mm
same,Mean Diameter of the Inhibition Zone,[15],23 ± 0.65 mm
same,Mean Diameter of the Inhibition Zone,[16],25 ± 0.33 mm
same,Mean Diameter of the Inhibition Zone,[17],26 ± 0.11 mm
same,MBC,[18]; [30],132 ± 1.35 µM
same,MIC,[18]; [31],77.4 ± 2.65 µM
same,MBC,[19],139 ± 1.63 µM
same,MIC,[19],77.4 ± 1.06 µM
same,MBC,[20],22 ± 0.65 µM
same,MIC,[20],11 ± 0.25 µM
same,MBC,[21],8.19 ± 0.26 µM
same,MIC,[21],4.82 ± 0.24 µM
same,MBC,[22],29.4 ± 0.65 µM
same,MIC,[22],15.5 ± 0.26 µM
same,MBC,[23],21.3 ± 0.25 µM
same,MIC,[23],12.9 ± 0.65 µM
same,MBC,[24],219.9 ± 1.54 µM
same,MIC,[24],137 ± 2.12 µM
same,MBC,[25],38.7 ± 0.65 µM
same,MIC,[25],19.3 ± 0.65 µM
"Cc1cc(C)n(-c2ccc(S(=O)(=O)NC(=N)N)cc2)c(=O)c1C#N [Compound 8, N-Carbamimidoyl-4-(3-cyano-4,6-dimethyl-2-oxopyridin-1(2H)-yl) benzenesulfonamide]",MFC/MIC,[1],<2
same,MFC,[1],81.4 ± 0.84 µM
same,MIC,[1],45.2 ± 0.54 µM
same,MFC/MIC,[2],<2
same,MFC,[2],136 ± 1.98 µM
same,MIC,[2],90.48 ± 0.84 µM
same,Intracellular Killing Activity,[3],136.5 ± 0.3%
same,MBC,[4],36.2 ± 0.42 µM
same,MIC,[4],22.6 ± 0.42 µM
same,MBC,[5],30.6 ± 1.78 µM
same,MIC,[5],16.1 ± 0.54 µM
same,T cells CD4+,[26],78.70 ± 0.56%
same,T cells CD8+,[26],18.44 ± 0.2%
same,Mean Diameter of Inhibition Zone,[6],22 ± 0.5 mm
same,Mean Diameter of Inhibition Zone,[7],15 ± 0.33 mm
same,Mean Diameter of Inhibition Zone,[8],20 ± 0.74 mm
same,Mean Diameter of Inhibition Zone,[9],21 ± 0.63 mm
same,IC50,[10],12.3 ± 0.73 µM
same,IC50,[11],39.1 ± 1.72 µM
same,Mean Diameter of the Inhibition Zone,[12],20 ± 0.82 mm
same,Mean Diameter of the Inhibition Zone,[27],25 ± 0.85 mm
same,Mean Diameter of the Inhibition Zone,[13],26 ± 0.14 mm
same,Mean Diameter of the Inhibition Zone,[14],23 ± 0.11 mm
same,Mean Diameter of the Inhibition Zone,[28],27 ± 0.50 mm
same,Mean Diameter of the Inhibition Zone,[15],25 ± 0.33 mm
same,Mean Diameter of the Inhibition Zone,[16],24 ± 0.30 mm
same,Spleen index,[29],0.010 ± 0.00
same,Spleen weight,[29],200 ± 0.025 mg
same,Thymus index,[29],0.537 ± 0.14 mg/g
same,Thymus weight,[29],13.42 ± 0.46 mg
same,MBC,[18],10.71 ± 0.36 µM
same,MIC,[18],5.64 ± 0.58 µM
same,MBC,[18]; [30],10.7 µM
same,MIC,[18]; [31],5.64 µM
same,MBC,[19],19.19 ± 0.14 µM
same,MIC,[19],11.3 ± 0.75 µM
same,MBC,"[20]; S. aureus ATCC 43300, read-out: MBC",34.36 ± 0.24 µM
same,MIC,"[20]; S. aureus ATCC 43300, read-out: MIC",18.1 ± 0.84 µM
same,MBC,"[21]; S. aureus ATCC 33591, read-out: MBC",46.3 ± 0.58 µM
same,MIC,"[21]; S. aureus ATCC 33591, read-out: MIC",25.7 ± 0.36 µM
same,MBC,"[22]; E. coli ATCC BAA-196, read-out: MBC",53.56 ± 0.41 µM
same,MIC,"[22]; E. coli ATCC BAA-196, read-out: MIC",26.8 ± 0.65 µM
same,MBC,"[23]; P. aeruginosa ATCC BAA-2111, read-out: MBC",45.2 ± 0.87 µM
same,MIC,"[23]; P. aeruginosa ATCC BAA-2111, read-out: MIC",22.6 ± 0.98 µM
same,MBC,[24],172 ± 1.95 µM
same,MIC,[24],90.5 ± 1.07 µM
same,MBC,[25],19.19 ± 0.18 µM
same,MIC,[25],11.3 ± 0.52 µM
